In ChEMBL document CHEMBL5113434, “Discovery of novel Thieno[2,3-d]imidazole derivatives as agonists of human STING for antitumor immunotherapy using systemic administration” (Eur J Med Chem, 2022):
The source made the active and inactive calls. The calls are words filed in the database; no cut-off is given here.

Key:
[1] = Observed AUC infinity in BALB/c mouse at 1 mg/kg, iv measured up to 24 hrs by UPLC-MS/MS analysis; assay type: ADME, organism-based; design: dose 1 mg/kg, time < 24 hrs, route iv; conditions: in vivo
[2] = target: T1, Stimulator of interferon genes protein (Homo sapiens, UniProt Q86WV6); assay: Activation of STING pathway in human 293T-Dual hSTING-H232 cells assessed as increase in ISG expression level measured for 24 hrs by SEAP reporter based Quanti-luc assay; assay type: cell-based; conditions: filed as activator, dose 0.01-1 µM, DDE = dose-dependent effect
Target sequence in this assay (Q86WV6 whole entry): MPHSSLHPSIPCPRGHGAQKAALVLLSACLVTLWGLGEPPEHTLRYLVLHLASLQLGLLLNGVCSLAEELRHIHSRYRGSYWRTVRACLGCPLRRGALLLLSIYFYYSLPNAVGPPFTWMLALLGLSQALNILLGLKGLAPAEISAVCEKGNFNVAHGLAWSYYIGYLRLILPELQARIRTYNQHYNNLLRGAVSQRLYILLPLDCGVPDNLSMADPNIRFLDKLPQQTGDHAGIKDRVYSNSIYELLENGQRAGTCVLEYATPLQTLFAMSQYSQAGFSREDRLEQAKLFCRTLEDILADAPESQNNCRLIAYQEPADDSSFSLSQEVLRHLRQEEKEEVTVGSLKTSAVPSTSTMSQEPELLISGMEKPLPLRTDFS

[3] = target: T1, Stimulator of interferon genes protein; assay: Agonist activity at STING in human THP1-Dual cells assessed as ISG activation incubated for 24 hrs by Quanti-luc reagent based assay; assay type: cell-based
Target sequence in this assay (Q86WV6 whole entry): as above

[4] = target: T1, Stimulator of interferon genes protein; assay: Agonist activity at human STING in human THP1-Dual cells assessed as activation of NF-kappB signaling pathway measured after 24 hrs by Quanti-luc reagent based assay; assay type: cell-based; conditions: filed as agonist, dose 0.0001-1 µM, DDE = dose-dependent effect
Target sequence in this assay (Q86WV6 whole entry): as above

[5] = AUClast in BALB/c mouse at 1 mg/kg, iv measured up to 24 hrs by UPLC-MS/MS analysis; assay type: ADME, organism-based; design: time < 24 hrs, dose 1 mg/kg, route iv; conditions: in vivo
[6] = Observed clearance in BALB/c mouse at 1 mg/kg, iv measured up to 24 hrs by UPLC-MS/MS analysis; assay type: ADME, organism-based; conditions: in vivo
[7] = target: T1, Stimulator of interferon genes protein; assay: Activation of STING pathway in human THP1-Dual cells assessed as increase in IFNbeta expression level at 0.01 to 1 uM measured for 24 hrs by chemiluminescence based analysis; assay type: cell-based; conditions: filed as activator, dose 0.01-1 µM
Target sequence in this assay (Q86WV6 whole entry): as above

[8] = target: T2, Stimulator of interferon genes protein (Mus musculus, UniProt Q3TBT3); assay: Agonist activity at STING in mouse RAW-Lucia ISG cells assessed as ISG activation incubated for 24 hrs by Quanti-luc reagent based assay; assay type: cell-based
T2 sequence (Q3TBT3 whole entry): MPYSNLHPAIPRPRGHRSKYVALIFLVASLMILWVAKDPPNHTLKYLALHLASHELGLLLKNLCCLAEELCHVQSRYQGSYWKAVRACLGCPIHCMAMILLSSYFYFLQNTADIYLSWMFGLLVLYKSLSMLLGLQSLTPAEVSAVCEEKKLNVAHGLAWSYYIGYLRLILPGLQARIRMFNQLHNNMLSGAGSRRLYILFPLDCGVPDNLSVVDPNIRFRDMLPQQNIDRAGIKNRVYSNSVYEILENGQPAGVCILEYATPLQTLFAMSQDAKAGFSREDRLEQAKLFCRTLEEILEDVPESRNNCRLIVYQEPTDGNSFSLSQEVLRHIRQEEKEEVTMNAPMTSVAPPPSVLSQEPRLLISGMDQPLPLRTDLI

[9] = target: T1, Stimulator of interferon genes protein; assay: Agonist activity at STING in human THP1-Dual cells assessed as fold change in ISG activation at 10 uM incubated for 24 hrs by Quanti-luc reagent based assay relative to control; assay type: cell-based; conditions: filed as agonist
Target sequence in this assay (Q86WV6 whole entry): as the sequence (Q86WV6 whole entry) above

[10] = target: T3, Stimulator of interferon genes protein (Mus musculus) (UniProt Q3TBT3); assay: Activation of STING pathway in mouse RAW-Lucia ISG cells assessed as increase in ISG expression level at 12.5 to 50 uM measured for 24 hrs by Quanti-luc reagent based assay; assay type: cell-based; conditions: filed as activator, dose 12.5-50 µM
T3 sequence (whole entry): T2 sequence (Q3TBT3 whole entry)

[11] = Observed volume of distribution at steady state in BALB/c mouse at 1 mg/kg, iv measured up to 24 hrs by UPLC-MS/MS analysis; assay type: ADME, organism-based; conditions: in vivo, read-out: Vdss
[12] = test system: Stimulator of interferon genes protein (Homo sapiens), Q86WV6 [R293Q]; assay: Binding affinity to human STING 293Q mutant assessed as thermal stability by measuring change in melting temperature by differential scanning fluorimetry; conditions: filed as agonist
Stimulator of interferon genes protein (Homo sapiens), Q86WV6 [R293Q], sequence (Q86WV6 whole entry R293Q): as the sequence (Q86WV6 whole entry) above, with R293Q counted along it

[13] = target: T3, Stimulator of interferon genes protein (Mus musculus); assay: Agonist activity at STING in mouse RAW-Lucia ISG cells assessed as fold change in ISG activation at 50 uM incubated for 24 hrs by Quanti-luc reagent based assay relative to control; assay type: cell-based; conditions: filed as agonist
Homo sapiens = organism: Homo sapiens; assay: Binding affinity to human STING H232 mutant assessed as thermal stability by measuring change in melting temperature by differential scanning fluorimetry; conditions: filed as agonist
Mus musculus = organism: Mus musculus; assay: Binding affinity to mouse STING R231 mutant assessed as thermal stability by measuring change in melting temperature by differential scanning fluorimetry; conditions: filed as agonist
[14] = target: T1, Stimulator of interferon genes protein; assay: Binding affinity to His6-tagged human wild type STING R232 variant by homogeneous time-resolved fluorescence assay
Target sequence in this assay (Q86WV6 whole entry, looked up, change not shown): as the sequence (Q86WV6 whole entry) above

[15] = Toxicity in BALB/c mouse xenografted with 4T1 cells assessed as body weight loss at 10 to 20 mg/kg, iv administered on day 1,4,7 and measured for 20 days; assay type: organism-based; conditions: in vivo, 480 h, dose 10-20 mg/kg, time 20 day
CT26 [16] = assay: Antitumour activity against mouse CT26 cells implanted in BALB/c mouse assessed as suppression of tumor growth at 10 mg/kg, iv administered on day 1,4,7 and measured for 20 days; assay type: functional, organism-based; conditions: time 20.0 day
CT26 [17] = assay: Antitumor immunity against mouse CT26 cells implanted in BALB/c mouse assessed as increase in IFN-beta level in plasma at 5 mg/kg, IT administered on day 1,4,7 for 20 days and measured 6 hrs post last dose; assay type: functional, organism-based; conditions: time 20.0 day
CT26 [18] = assay: Antitumor immunity against mouse CT26 cells implanted in BALB/c mouse assessed as increase in IFN-beta level in plasma at 10 mg/kg, iv administered on day 1,4,7 for 20 days and measured 6 hrs post last dose; assay type: functional, organism-based; conditions: time 20.0 day
[19] = target: T1, Stimulator of interferon genes protein; assay: Activation of STING pathway in human THP1-Dual cells assessed as increase in TBK1 phosphorylation at 0.01 to 1 uM measured for 4 hrs immunoblotting analysis; assay type: cell-based; conditions: filed as activator, dose 0.01-1 µM
Target sequence in this assay (Q86WV6 whole entry): as above

[20] = Half life in BALB/c mouse at 1 mg/kg, iv measured up to 24 hrs by UPLC-MS/MS analysis; assay type: ADME, organism-based; conditions: in vivo
[21] = target: T1, Stimulator of interferon genes protein; assay: Activation of STING pathway in human 293T-Dual hSTING-H232 cells assessed as increase in IFNbeta expression level measured for 24 hrs by SEAP reporter based Quanti-luc assay; assay type: cell-based; conditions: filed as activator, dose 0.01-1 µM, DDE = dose-dependent effect
4T1 [22] = assay: Antitumour activity against mouse 4T1 cells implanted in BALB/c mouse assessed as tumor growth inhibition at 20 mg/kg, iv administered on day 1,4,7 and measured for 20 days relative to control; assay type: functional; conditions: 4T1, 480 h, time 20 day, read-out: TGI
[23] = test system: Stimulator of interferon genes protein (Homo sapiens), Q86WV6 [UNDEFINED MUTATION]; assay: Binding affinity to human STING R232 mutant assessed as thermal stability by measuring change in melting temperature by differential scanning fluorimetry; conditions: filed as agonist
Stimulator of interferon genes protein (Homo sapiens), Q86WV6 [UNDEFINED MUTATION], sequence (Q86WV6 whole entry, looked up, stated change not applied): as the sequence (Q86WV6 whole entry) above

CT26 [24] = assay: Antitumour activity against mouse CT26 cells implanted in BALB/c mouse assessed as suppression of tumor growth at 5 mg/kg, IT administered on day 1,4,7 and measured for 20 days; assay type: functional, organism-based; conditions: time 20.0 day
[25] = target: T1, Stimulator of interferon genes protein; assay: Activation of STING pathway in human 293T-Dual hSTING-R232 cells assessed as increase in ISG expression level measured for 24 hrs by SEAP reporter based Quanti-luc assay; assay type: cell-based; conditions: filed as activator, dose 0.01-1 µM, DDE = dose-dependent effect
[26] = test system: Stimulator of interferon genes protein (Homo sapiens), Q86WV6 [G230A,R293Q]; assay: Binding affinity to human STING AQ mutant assessed as thermal stability by measuring change in melting temperature by differential scanning fluorimetry; conditions: filed as agonist
Stimulator of interferon genes protein (Homo sapiens), Q86WV6 [G230A,R293Q], sequence (Q86WV6 whole entry G230A/R293Q): as the sequence (Q86WV6 whole entry) above, with G230A, R293Q counted along it

CT26 [27] = assay: Antitumor immunity against mouse CT26 cells implanted in BALB/c mouse assessed as increase in IP-10 level in plasma at 5 mg/kg, IT administered on day 1,4,7 for 20 days and measured 6 hrs post last dose; assay type: functional, organism-based; conditions: time 20.0 day
[28] = target: T1, Stimulator of interferon genes protein; assay: Activation of STING pathway in human THP1-Dual cells assessed as increase in IP-10 expression level at 0.01 to 1 uM measured for 24 hrs by chemiluminescence based analysis; assay type: cell-based; conditions: filed as activator, dose 0.01-1 µM
4T1 [29] = assay: Antitumour activity against mouse 4T1 cells implanted in BALB/c mouse assessed as tumor growth inhibition at 10 mg/kg, iv administered on day 1,4,7 and measured for 20 days relative to control; assay type: functional; conditions: 4T1, 480 h, time 20 day, read-out: TGI
[30] = target: T1, Stimulator of interferon genes protein; assay: Activation of STING pathway in human 293T-Dual hSTING-R232 cells assessed as increase in IFNbeta expression level measured for 24 hrs by SEAP reporter based Quanti-luc assay; assay type: cell-based; conditions: filed as activator, dose 0.01-1 µM, DDE = dose-dependent effect
[31] = target: T1, Stimulator of interferon genes protein; assay: Agonist activity at human STING in human THP1-Dual cells assessed as activation of ISG signaling pathway measured after 24 hrs by Quanti-luc reagent based assay; assay type: cell-based; conditions: filed as agonist, dose 0.0001-1 µM, DDE = dose-dependent effect
[32] = target: T1, Stimulator of interferon genes protein; assay: Activation of STING pathway in human THP1-Dual cells assessed as increase in IRF3 phosphorylation at 0.01 to 1 uM measured for 4 hrs by immunoblotting analysis; assay type: cell-based; conditions: filed as activator, dose 0.01-1 µM
CT26 [33] = assay: Antitumor immunity against mouse CT26 cells implanted in BALB/c mouse assessed as increase in IP-10 level in plasma at 10 mg/kg, iv administered on day 1,4,7 for 20 days and measured 6 hrs post last dose; assay type: functional, organism-based; conditions: time 20.0 day

For `CCn1nc(C)cc1C(=O)Nc1nc2cc(C(N)=O)sc2n1C/C=C/Cn1c(NC(=O)c2cc(C)nn2CC)nc2cc(C(N)=O)cc(OCCCN3CCOCC3)c21`, the AUC(0-inf) [1] was 711 ng·h/mL, the Activity [2] was “Dde” and the EC50 [3] was 1.2 nM. The Activity [4] was “Dde”, the AUC(0-t) at 24 h [5] was 701 ng·h/mL and the clearance [6] was 26.3 mL/min/kg. The Activity [7] was “Active”, the EC50 [8] was 32800 nM and the fold change (FC) [9] was 145. For the same molecule, the Activity [10] was “Active”, the Vd [11] was 1.52 L/kg and the ΔTm [12] was 11.1 °C. The fold change (FC) [13] was 20.7, the ΔTm (Homo sapiens) was 12.8 °C and the ΔTm (Mus musculus) was 13.3 °C. For the same molecule, the IC50 [14] was 0.6 nM, the Activity [15] was “Non-Toxic” and the Activity (CT26 [16]) was “Active”. The Activity (CT26 [17]) was “Active”, the Activity (CT26 [18]) was “Active” and the Activity [19] was “Active”. For the same molecule, the half-life [20] was 1.62 h, the Activity [21] was “Dde” and the inhibition in vivo at 20 mg/kg (4T1 [22]) was 74%. The ΔTm [23] was 6.6 °C, the Activity (CT26 [24]) was “Active” and the Activity [25] was “Dde”. For the same molecule, the ΔTm [26] was 12.4 °C, the Activity (CT26 [27]) was “Active” and the Activity [28] was “Active”. For the same molecule, the inhibition in vivo at 10 mg/kg (4T1 [29]) was 61%, the Activity [30] was “Dde” and the Activity [31] was “Dde”. For the same molecule, the Activity [32] was “Active” and the Activity (CT26 [33]) was “Active”.
